A short description of this series: Solubility of therapeutic drugs in dimethicone. It counts as physicochemical. The source says: Thus, from the view point of bio-compatibility, dimethicone is suitable to be used as medium to prepare formulation for subcutaneous injection. […] Therefore, this will not pose any stability problem when using silicone as medium to prepare suspensions comprising the aforesaid drugs, which is one of the important factors usually affecting the sustained action of a long-lasting formulation. […] When hydrogenated castor oil used within the proper range (0.2% to 0.5%), the resulting liquid suspension is better in terms of stability, fluidibility, injectability and long-lasting releasing effect than the injection formulation prepared using water, vegetable oil or other organic liquid as the suspension medium. Hydrogenated castor oil functions as a suspending agent and enhances the effect of sustained releasing. In addition, when the formulation of the present invention is prepared by the micro powder crystallizing method, the presence of hydrogenated castor oil suppresses the growth of the crystal nucleus of active ingredients, whereby producing micro powder of active ingredients with a particle size of 20 micrometers or smaller. (4) By mixing the active ingredients with hydrogenated castor oil or with the-combination of hydrogenated castor oil and ethylcellulose to produce solid dispersion micro powder with particle size smaller than 300 micrometers, then dispersing the micro powder in silicone oil and grinding with a colloid mill or a ball mill, a long lasting release formulation containing solid dispersion of various particle sizes (from 10 micrometer to 150 micrometers) can be produced. Further, the sustained releasing effect of the formulation may be modified by adjusting the particle size of the solid dispersion and the proportion of hydrogenated castor oil relative to the active ingredients. For instance, sustained release formulations with various durations of effectiveness may be prepared as follows: mixing avermectins with hydrogenated castor oil to produce two solid dispersions with the avermectins to hydrogenated castor oil equal to 1:2 and 2:1, respectively, then mixing the two solid dispersions at a given ratio and dispersing the mixture in silicone oil, and producing the solid dispersion in the system with the particle size varying between 85 micrometers to 120 micrometers by controlling the extent of grinding. The formulation can provide an effective sustained releasing period up to 140 days following a single administration. Furthermore, the injection prepared by the above method has better injectability, stability and biocompatibility than water or vegetable oil based sustained release formulations for solid dispersion micro powder of avermectins/hydrogenated castor oil. Specifically, the formulation using water as medium has three disadvantages. First, it has difficulty to maintain an effective sustained releasing for more than 80 days. Second, it has poor injectability and, without adding more water soluble suspension assisting agents, solid suspension phase may “separate” from the water phase, causing injection failure due to blocking of the syringe needle. Third, it results in tissue lumps around the injection site. Other organic liquid based long-lasting formulations have similar problems.

Where two headings read alike, the source gives them in different places.

As to `CO/N=C(\C(=O)N[C@@H]1C(=O)N2C(C(=O)O)=C(CSC(=O)c3ccco3)CS[C@H]12)c1csc(N)n1` [ceftiofur], the Solubility in dimethicone entry is given as “less than 0.01%”.

Consider `O=C(NC(=O)c1c(F)cccc1F)Nc1ccc(Cl)cc1` [diflubenzuron], for which the Solubility in dimethicone entry (dimethicone) was “less than 0.01%”.

`O=[N+]([O-])NC1=NCCN1Cc1ccc(Cl)nc1` [imidacloprid]: the Solubility in dimethicone entry is “less than 0.01%”.

`CC1(C)S[C@@H]2[C@H](NC(=O)Cc3ccccc3)C(=O)N2[C@H]1C(=O)[O-].[K+]` [penicillin G potassium salt]: the Solubility in dimethicone entry is “less than 0.01%”.

Regarding `CC1(C)S[C@@H]2[C@H](NC(=O)Cc3ccccc3)C(=O)N2[C@H]1C(=O)[O-].[Na+]` [penicillin G sodium salt], the Solubility in dimethicone entry is listed as “less than 0.01%”.

Values taken from patent US7648711B2, “Dimethicone-containing sustained release injection formulation” (priority 2003, dated 2010).
